In patent US5300491A, “Treatment of protozoal infection” (priority 1992, dated 1994):
Read-outs that look alike come from different tables or passages of the source.

Tested on: Entamoeba histolytica
Type: cell-based
Text: E. histolytica isolates representing three distinct zymodemes (I, II or XIV) were derived from a range of geographical locations. The patients from whom the isolates were obtained were either pathogenic (i.e. presented dysentery), or non-pathogenic (i.e., presented a non-dysenteric stage of infection characterized by passing of cysts or trophozoites). The following table identifies the E. histolytica isolates in accordance with the above criteria:
Each isolate was a xenic culture, i.e., it contained, in addition to the E. histolytica amoeba, the normally occurring patient faecal microflora. The cultures were maintained according to the method of Robinson, Trans. Roy. Soc. Trop. Med. Hyg. 62, 285-94, (1968). Bacitracin (70 I.U./mg) and its zinc salt (65 I.U./mg) were obtained from Apothekernes Laboratorium A.S (Oslo, Norway). Following microtitre-assay standardization and pilot testing of the drugs (results not presented), the following assay procedure was established. Bacitracin was screened over the range of 20.0-0.625 mg/ml by doubling dilution. 30 mg/ml bacitracin was also examined. […] The remaining wells were run as controls. An initial stock solution of 75 mg/ml bacitracin was prepared in starch-free Robinson medium (SFRM) . Subsequent to loading the first set of wells, the stock was diluted with SFRM to 50 mg/ml, which was used to prepare the remaining concentrations. […] 100 μl volumes of both drugs were then double-diluted in SFRM to provide 2.5X concentrates of the required final concentrations in the microtitre plates. 50 μl of a 25 mg% starch (BDH) solution (in SFRM) was then added to each well. 16-18 hours before the end of the required 48-hour culture period, the amoeba isolates were passaged to fresh tubes containing starch-free Robinson medium. At the end of the culture period, the amoebae were harvested in a small volume of medium and resuspended in at least 20 volumes SFRM. The suspensions were centrifuged at 1000 rpm for 5 minutes prior to re-suspension in fresh medium and counted in a modified Neubauer chamber. Amoebae were centrifuged as before and the pellet resuspended to a concentration of 2.5×10^4 /ml SFRM. 100 μl aliquots were then pipetted into respective wells to provide duplicate cultures of each isolate for each concentration assayed. The plates were then placed in an anaerobic chamber (HP11, Oxoid) at 37° C. for 24 hours. While this procedure provided sufficient starch for the amoebae, the concentration was such that at 24 hours the plates were easily read and quantitified by direct observation using an inverted microscope. Viability was assessed by the addition of Trypan blue to a final concentration of 0.1%.
Readings from each of the studies were collected and stored until all three experiments were completed in order to reduce any bias in subsequent readings. Minimun inhibitory and minimum lethal concentrations were given in mg/ml. […]

[1] = span over all xenic isolates and studies
[2] = xenic isolate 70k, Experiment 1
[3] = xenic isolate 70k, Experiment 2
[4] = xenic isolate 70k, Experiment 3
[5] = xenic isolate 116k, Experiment 1
[6] = xenic isolate 116k, Experiment 2
[7] = xenic isolate 116k, Experiment 3
[8] = xenic isolate 418, Experiment 1
[9] = xenic isolate 418, Experiment 2
[10] = xenic isolate 418, Experiment 3
[11] = xenic isolate 1246, Experiment 1
[12] = xenic isolate 1246, Experiment 2
[13] = xenic isolate 1246, Experiment 3
[14] = xenic isolate AiDO, Experiment 1
[15] = xenic isolate AiDO, Experiment 2
[16] = xenic isolate AiDO, Experiment 3
[17] = xenic isolate BiLO, Experiment 1
[18] = xenic isolate BiLO, Experiment 3
[19] = xenic isolate DOGO, Experiment 1
[20] = xenic isolate DOGO, Experiment 2
[21] = xenic isolate DOGO, Experiment 3
[22] = xenic isolate OMAk, Experiment 1
[23] = xenic isolate OMAk, Experiment 3
[24] = xenic isolate Sh2, Experiment 1
[25] = xenic isolate Sh2, Experiment 2
[26] = xenic isolate Sh2, Experiment 3
[27] = xenic isolate T2k, Experiment 1
[28] = xenic isolate T2k, Experiment 2
[29] = xenic isolate T2k, Experiment 3
[30] = xenic isolate URU1, Experiment 1
[31] = xenic isolate URU1, Experiment 2
[32] = xenic isolate URU1, Experiment 3
[33] = xenic isolate URU19, Experiment 1
[34] = xenic isolate URU19, Experiment 3

## Zinc bacitracin
In the xenic culture assay medium
  concentration at which precipitation occurred: ≥ 5000 µg/mL
[1]
  MICs: 0.16 to 1.25 mg/mL
  MLCs: 1.25 to 5.0 mg/mL
Xenic Isolate 1, single study over a narrower range of drug concentration (Table 4)
  Minimum Lethal Concentration (MLC): 1600 µg/mL
Xenic Isolate C1, single study over a narrower range of drug concentration (Table 4)
  Minimum Lethal Concentration (MLC): 1400 µg/mL
Xenic isolate 1, Experiment 1
  Minimum Inhibitory Concentration (MIC): 630 µg/mL
  Minimum Lethal Concentration (MLC): 2500 µg/mL
Xenic isolate 1, Experiment 2
  Minimum Inhibitory Concentration (MIC): 1250 µg/mL
  Minimum Lethal Concentration (MLC): 2500 µg/mL
Xenic isolate 1, Experiment 3
  Minimum Inhibitory Concentration (MIC): 310 µg/mL
  Minimum Lethal Concentration (MLC): 2500 µg/mL
[2]
  Minimum Inhibitory Concentration (MIC): 630 µg/mL
  Minimum Lethal Concentration (MLC): 2500 µg/mL
[3]
  Minimum Inhibitory Concentration (MIC): 630 µg/mL
  Minimum Lethal Concentration (MLC): 2500 µg/mL
[4]
  Minimum Inhibitory Concentration (MIC): 630 µg/mL
  Minimum Lethal Concentration (MLC): 2500 µg/mL
[5]
  Minimum Inhibitory Concentration (MIC): 630 µg/mL
  Minimum Lethal Concentration (MLC): 2500 µg/mL
[6]
  Minimum Inhibitory Concentration (MIC): 310 µg/mL
  Minimum Lethal Concentration (MLC): 1250 µg/mL
[7]
  Minimum Inhibitory Concentration (MIC): 310 µg/mL
  Minimum Lethal Concentration (MLC): 2500 µg/mL
[8]
  Minimum Inhibitory Concentration (MIC): 630 µg/mL
  Minimum Lethal Concentration (MLC): 5000 µg/mL
[9]
  Minimum Inhibitory Concentration (MIC): 310 µg/mL
  Minimum Lethal Concentration (MLC): 2500 µg/mL
[10]
  Minimum Inhibitory Concentration (MIC): 310 µg/mL
  Minimum Lethal Concentration (MLC): 2500 µg/mL
[11]
  Minimum Inhibitory Concentration (MIC): 160 µg/mL
  Minimum Lethal Concentration (MLC): 2500 µg/mL
[12]
  Minimum Inhibitory Concentration (MIC): 630 µg/mL
  Minimum Lethal Concentration (MLC): 2500 µg/mL
[13]
  Minimum Inhibitory Concentration (MIC): 310 µg/mL
  Minimum Lethal Concentration (MLC): 1250 µg/mL
[14]
  Minimum Inhibitory Concentration (MIC): 630 µg/mL
  Minimum Lethal Concentration (MLC): 2500 µg/mL
[15]
  Minimum Inhibitory Concentration (MIC): 160 µg/mL
  Minimum Lethal Concentration (MLC): 2500 µg/mL
[16]
  Minimum Inhibitory Concentration (MIC): 160 µg/mL
  Minimum Lethal Concentration (MLC): 2500 µg/mL
[17]
  Minimum Inhibitory Concentration (MIC): 310 µg/mL
  Minimum Lethal Concentration (MLC): 2500 µg/mL
[18]
  Minimum Inhibitory Concentration (MIC): 310 µg/mL
  Minimum Lethal Concentration (MLC): 2500 µg/mL
Xenic isolate C1, Experiment 1
  Minimum Inhibitory Concentration (MIC): 1250 µg/mL
  Minimum Lethal Concentration (MLC): 2500 µg/mL
Xenic isolate C1, Experiment 2
  Minimum Inhibitory Concentration (MIC): 310 µg/mL
  Minimum Lethal Concentration (MLC): 2500 µg/mL
Xenic isolate C1, Experiment 3
  Minimum Inhibitory Concentration (MIC): 310 µg/mL
  Minimum Lethal Concentration (MLC): 2500 µg/mL
Xenic isolate C2, Experiment 1
  Minimum Inhibitory Concentration (MIC): 630 µg/mL
  Minimum Lethal Concentration (MLC): 2500 µg/mL
Xenic isolate C2, Experiment 2
  Minimum Inhibitory Concentration (MIC): 630 µg/mL
  Minimum Lethal Concentration (MLC): 2500 µg/mL
Xenic isolate C2, Experiment 3
  Minimum Inhibitory Concentration (MIC): 310 µg/mL
  Minimum Lethal Concentration (MLC): 2500 µg/mL
Xenic isolate DA, Experiment 1
  Minimum Inhibitory Concentration (MIC): 630 µg/mL
  Minimum Lethal Concentration (MLC): 2500 µg/mL
Xenic isolate DA, Experiment 2
  Minimum Inhibitory Concentration (MIC): 630 µg/mL
  Minimum Lethal Concentration (MLC): 2500 µg/mL
Xenic isolate DA, Experiment 3
  Minimum Inhibitory Concentration (MIC): 630 µg/mL
  Minimum Lethal Concentration (MLC): 2500 µg/mL
[19]
  Minimum Inhibitory Concentration (MIC): 160 µg/mL
  Minimum Lethal Concentration (MLC): 2500 µg/mL
[20]
  Minimum Inhibitory Concentration (MIC): 310 µg/mL
  Minimum Lethal Concentration (MLC): 2500 µg/mL
[21]
  Minimum Inhibitory Concentration (MIC): 310 µg/mL
  Minimum Lethal Concentration (MLC): 1250 µg/mL
Xenic isolate GS, Experiment 1
  Minimum Inhibitory Concentration (MIC): 630 µg/mL
  Minimum Lethal Concentration (MLC): 2500 µg/mL
Xenic isolate GS, Experiment 2
  Minimum Inhibitory Concentration (MIC): 630 µg/mL
  Minimum Lethal Concentration (MLC): 2500 µg/mL
Xenic isolate GS, Experiment 3
  Minimum Inhibitory Concentration (MIC): 310 µg/mL
  Minimum Lethal Concentration (MLC): 2500 µg/mL
Xenic isolate MS, Experiment 1
  Minimum Inhibitory Concentration (MIC): 630 µg/mL
  Minimum Lethal Concentration (MLC): 2500 µg/mL
Xenic isolate MS, Experiment 2
  Minimum Inhibitory Concentration (MIC): 630 µg/mL
  Minimum Lethal Concentration (MLC): 1250 µg/mL
Xenic isolate MS, Experiment 3
  Minimum Inhibitory Concentration (MIC): 630 µg/mL
  Minimum Lethal Concentration (MLC): 2500 µg/mL
[22]
  Minimum Inhibitory Concentration (MIC): 310 µg/mL
  Minimum Lethal Concentration (MLC): 2500 µg/mL
[23]
  Minimum Inhibitory Concentration (MIC): 160 µg/mL
  Minimum Lethal Concentration (MLC): 2500 µg/mL
Xenic isolate SI, Experiment 1
  Minimum Inhibitory Concentration (MIC): 630 µg/mL
  Minimum Lethal Concentration (MLC): 2500 µg/mL
Xenic isolate SI, Experiment 3
  Minimum Inhibitory Concentration (MIC): 630 µg/mL
  Minimum Lethal Concentration (MLC): 2500 µg/mL
[24]
  Minimum Inhibitory Concentration (MIC): 630 µg/mL
  Minimum Lethal Concentration (MLC): 2500 µg/mL
[25]
  Minimum Inhibitory Concentration (MIC): 630 µg/mL
  Minimum Lethal Concentration (MLC): 2500 µg/mL
[26]
  Minimum Inhibitory Concentration (MIC): 310 µg/mL
  Minimum Lethal Concentration (MLC): 2500 µg/mL
[27]
  Minimum Inhibitory Concentration (MIC): 630 µg/mL
  Minimum Lethal Concentration (MLC): 5000 µg/mL
[28]
  Minimum Inhibitory Concentration (MIC): 310 µg/mL
  Minimum Lethal Concentration (MLC): 5000 µg/mL
[29]
  Minimum Inhibitory Concentration (MIC): 160 µg/mL
  Minimum Lethal Concentration (MLC): 2500 µg/mL
Xenic isolate T4, Experiment 1
  Minimum Inhibitory Concentration (MIC): 310 µg/mL
  Minimum Lethal Concentration (MLC): 2500 µg/mL
Xenic isolate T4, Experiment 2
  Minimum Inhibitory Concentration (MIC): 310 µg/mL
  Minimum Lethal Concentration (MLC): 2500 µg/mL
Xenic isolate T4, Experiment 3
  Minimum Inhibitory Concentration (MIC): 160 µg/mL
  Minimum Lethal Concentration (MLC): 2500 µg/mL
Xenic isolate T6, Experiment 1
  Minimum Inhibitory Concentration (MIC): 310 µg/mL
  Minimum Lethal Concentration (MLC): 2500 µg/mL
Xenic isolate T6, Experiment 2
  Minimum Inhibitory Concentration (MIC): 630 µg/mL
  Minimum Lethal Concentration (MLC): 2500 µg/mL
Xenic isolate T6, Experiment 3
  Minimum Inhibitory Concentration (MIC): 310 µg/mL
  Minimum Lethal Concentration (MLC): 2500 µg/mL
[30]
  Minimum Inhibitory Concentration (MIC): 630 µg/mL
  Minimum Lethal Concentration (MLC): 2500 µg/mL
[31]
  Minimum Inhibitory Concentration (MIC): 1250 µg/mL
  Minimum Lethal Concentration (MLC): 2500 µg/mL
[32]
  Minimum Inhibitory Concentration (MIC): 630 µg/mL
  Minimum Lethal Concentration (MLC): 2500 µg/mL
[33]
  Minimum Inhibitory Concentration (MIC): 630 µg/mL
  Minimum Lethal Concentration (MLC): 2500 µg/mL
[34]
  Minimum Inhibitory Concentration (MIC): 310 µg/mL
  Minimum Lethal Concentration (MLC): 2500 µg/mL
